Values after ≈ are worked out from the molar mass of the structure shown. Active and inactive are the calls of the source. The calls are words filed in the database; no cut-off is given here.
Assays:
Escherichia coli [1] = test: Antimicrobial activity against Escherichia coli ATCC 25922 assessed as increase in absorbance at 8 mg/ml incubated for 8 hrs in presence of pepsin; assay type: functional, organism-based
Salmonella typhimurium [2] = test: Antimicrobial activity against Salmonella typhimurium 7731 assessed as increase in absorbance incubated for 20 to 22 hrs; assay type: functional, Salmonella enterica subsp. enterica serovar Typhimurium; conditions: Salmonella enterica, time 20-22 hrs
[3] = Hemolytic activity in healthy human RBC assessed as hemolysis incubated for 1 hr by microplate reader; assay type: toxicity, cell-based; conditions: erythrocyte
Escherichia coli [4] = test: Antibiofilm activity against Escherichia coli ATCC 25922 biofilm assessed as removal of matured biofilm at 16 uM; assay type: functional, organism-based
Pseudomonas aeruginosa [5] = test: Antimicrobial activity against Pseudomonas aeruginosa 27853 assessed as increase in absorbance incubated for 20 to 22 hrs; assay type: functional; conditions: time 20-22 hrs
RAW264.7 = test: Cytotoxicity against mouse RAW264.7 cells assessed as cell death measured after 18 to 24 hrs by MTT assay; assay type: functional; conditions: time 18-24 hrs
Escherichia coli [6] = test: Induction of membrane damage in Escherichia coli ATCC 25922 assessed as damaged membrane surface (irregular vesicles protrusions) at 8 uM measured after 1 hr incubation by SEM analysis; assay type: functional, organism-based
Cell membrane [7] = test: Induction of depolarization of cytoplasmic membrane (CM) in Escherichia coli ATCC 25922 assessed as fluorescence changes at 1/2 to 3 times of MIC by fluorescent probe DiSC3-5 assay; assay type: subcellular; conditions: time 1000-3000 sec
Escherichia coli [8] = test: Antimicrobial activity against Escherichia coli ATCC 25922 assessed as increase in absorbance at 8 mg/ml incubated for 8 hrs in presence of chymotrypsin; assay type: functional, organism-based
Escherichia coli [9] = test: Antimicrobial activity against Escherichia coli ATCC 25922 assessed as increase in absorbance incubated for 4 hrs in presence of 50% serum; assay type: functional, organism-based
Escherichia coli [10] = test: Induction of membrane damage in Escherichia coli ATCC 25922 assessed as damaged membrane surface by analysing leakage (hollow interiors) at 8 uM measured after 1 hr incubation by TEM analysis; assay type: functional, organism-based
Staphylococcus aureus [11] = test: Antimicrobial activity against Staphylococcus aureus 11011 assessed as increase in absorbance incubated for 20 to 22 hrs; assay type: functional; conditions: time 20-22 hrs
Escherichia coli [12] = test: Inhibition of respiratory chain dehydrogenase (RCD) activity in Escherichia coli ATCC 25922 at 4 uM incubated for 90 mins by TTC assay
Escherichia coli [13] = test: Antimicrobial activity against Escherichia coli K88 assessed as increase in absorbance incubated for 20 to 22 hrs; assay type: functional; conditions: time 20-22 hrs
Escherichia coli [14] = test: Antimicrobial activity against Escherichia coli ATCC 25922 assessed as increase in absorbance incubated for 4 hrs in presence of 12.5% serum; assay type: functional, organism-based
Cell membrane [15] = test: Induction of cytoplasmic membrane (CM) permeabilization in Escherichia coli ATCC 25922 assessed as utilization of ONPG at 1/2 MIC; assay type: subcellular
Salmonella typhimurium [16] = test: Antimicrobial activity against Salmonella typhimurium 14028 assessed as increase in absorbance incubated for 20 to 22 hrs; assay type: functional, Salmonella enterica subsp. enterica serovar Typhimurium; conditions: Salmonella enterica, time 20-22 hrs
Escherichia coli [17] = test: Antimicrobial activity against Escherichia coli ATCC 25922 assessed as increase in absorbance at MIC concentration in presence of […] ug/ml Lipopolysaccharide incubated for 8 hrs; assay type: functional, organism-based; conditions: dose 64.0 µg/ml
[18] = Cytotoxicity against porcine IPEC-J2 cells assessed as cell death measured after 18 to 24 hrs by MTT assay; assay type: functional; conditions: Sus scrofa, time 18-24 hrs
Escherichia coli [19] = test: Antimicrobial activity against Escherichia coli ATCC 25922 assessed as increase in absorbance at MIC concentration in presence of < 8 ug/ml Lipopolysaccharide incubated for 8 hrs; assay type: functional, organism-based; conditions: dose < 8.0 µg/ml
Acinetobacter baumannii [20] = test: Antimicrobial activity against Acinetobacter baumannii AB1902 assessed as increase in absorbance incubated for 20 to 22 hrs; assay type: functional; conditions: time 20-22 hrs
Lipopolysaccharide (LPS) = test: Binding affinity to Escherichia coli O111:B4 Lipopolysaccharide by fluorescent probe BODIPYTR-cadaverine (BC) assay; conditions: dose 1-16 µM
Cell membrane [21] = test: Induction of depolarization of cytoplasmic membrane (CM) in Escherichia coli ATCC 25922 assessed as fluorescence changes at 1/2 to 3 times of MIC measured after 1000 to 3000 seconds by fluorescent probe DiSC3-5 assay; assay type: subcellular; conditions: time 1000-3000 sec
Escherichia coli [22] = test: Antimicrobial activity against Escherichia coli ATCC 25922 assessed as increase in absorbance incubated for 20 to 22 hrs in presence of […] physiological salt; assay type: functional, organism-based; conditions: time 20-22 hrs
Cell membrane [23] = test: Induction of Outer membrane permeability in Escherichia coli ATCC 25922 incubated for 30 mins by N-phenyl-1-naphthylamine (NPN) uptake assay; assay type: subcellular; conditions: dose 1-16 µM
Escherichia coli [24] = test: Reduction in intracellular ATP level in Escherichia coli ATCC 25922 at 2 uM measured after 1 hr incubation by Enhanced ATP assay kit; assay type: functional; set-up: scale not given: the % may be the effect or the level left
Escherichia coli [25] = test: Antimicrobial activity against Escherichia coli ATCC 25922 assessed as increase in absorbance incubated for 20 to 22 hrs in presence of Fe3+ physiological salt; assay type: functional, organism-based; conditions: time 20-22 hrs
Escherichia coli [26] = test: Induction of ROS accumulation in Escherichia coli ATCC 25922 at 4 uM incubated for 30 mins by DCFH-DA assay; assay type: functional, organism-based
Escherichia coli [27] = test: Antimicrobial activity against Escherichia coli ATCC 25922 assessed as increase in absorbance incubated for 20 to 22 hrs in presence of K+ physiological salt; assay type: functional, organism-based; conditions: time 20-22 hrs
Escherichia coli [28] = test: Induction of membrane damage in Escherichia coli ATCC 25922 assessed as ruptured membrane by analysing red fluorescence at 8 uM measured after 1 hr incubation by PI - live and dead staining based fluorescence microscopy; assay type: functional, organism-based
Escherichia coli [29] = test: Antimicrobial activity against Escherichia coli ATCC 25922 assessed as increase in absorbance incubated for 20 to 22 hrs; assay type: functional; conditions: time 20-22 hrs
Pseudomonas aeruginosa [30] = test: Antimicrobial activity against Pseudomonas aeruginosa 25349 assessed as increase in absorbance incubated for 20 to 22 hrs; assay type: functional; conditions: time 20-22 hrs
Staphylococcus aureus [31] = test: Antimicrobial activity against Staphylococcus aureus 29213 assessed as increase in absorbance incubated for 20 to 22 hrs; assay type: functional; conditions: time 20-22 hrs
Escherichia coli [32] = test: Antimicrobial activity against Escherichia coli ATCC 25922 assessed as increase in absorbance incubated for 4 hrs in presence of 25% serum; assay type: functional, organism-based
Staphylococcus aureus [33] = test: Antimicrobial activity against Staphylococcus aureus 25923 assessed as increase in absorbance incubated for 20 to 22 hrs; assay type: functional; conditions: time 20-22 hrs
Staphylococcus aureus [34] = test: Antimicrobial activity against methicillin-resistant Staphylococcus aureus 43300 assessed as increase in absorbance incubated for 20 to 22 hrs; assay type: functional; conditions: time 20-22 hrs
HEK-293T = test: Cytotoxicity against human HEK293T cells assessed as cell death measured after 18 to 24 hrs by MTT assay; assay type: functional; conditions: time 18-24 hrs
Escherichia coli [35] = test: Antibiofilm activity against Escherichia coli ATCC 25922 biofilm assessed as inhibition of biofilm formation at 2 uM; assay type: functional, organism-based
Acinetobacter baumannii [36] = test: Antimicrobial activity against Acinetobacter baumannii AB1901 assessed as increase in absorbance incubated for 20 to 22 hrs; assay type: functional; conditions: time 20-22 hrs
[37] = system: Staphylococcus epidermidis; test: Antimicrobial activity against Staphylococcus epidermidis 12228 assessed as increase in absorbance incubated for 20 to 22 hrs; assay type: functional; conditions: time 20-22 hrs
Enterococcus faecalis = test: Antimicrobial activity against Enterococcus faecalis 29212 assessed as increase in absorbance incubated for 20 to 22 hrs; assay type: functional; conditions: time 20-22 hrs
Escherichia coli [38] = test: Antimicrobial activity against Escherichia coli ATCC 25922 assessed as increase in absorbance incubated for 20 to 22 hrs in presence of Mg2+ physiological salt; assay type: functional, organism-based; conditions: time 20-22 hrs
Escherichia coli [39] = test: Resistance fold, ratio of MIC for Escherichia coli ATCC 25922 measured after 30 day passage period to MIC for Escherichia coli ATCC 25922; assay type: functional
Escherichia coli [40] = test: Antimicrobial activity against Escherichia coli K99 assessed as increase in absorbance incubated for 20 to 22 hrs; assay type: functional; conditions: time 20-22 hrs
Escherichia coli [41] = test: Antimicrobial activity against Escherichia coli ATCC 25922 assessed as increase in absorbance incubated for 20 to 22 hrs in presence of NH4+ physiological salt; assay type: functional, organism-based; conditions: time 20-22 hrs
Escherichia coli [42] = test: Induction of membrane damage in Escherichia coli ATCC 25922 assessed as ruptured membrane by analysing green fluorescence at 8 uM measured after 1 hr incubation by SYTO - live and dead staining based fluorescence microscopy; assay type: functional, organism-based
Escherichia coli [43] = test: Antimicrobial activity against Escherichia coli ATCC 25922 assessed as increase in absorbance at 8 mg/ml incubated for 8 hrs in presence of trypsin; assay type: functional, organism-based
Mus musculus [44] = test: Anti-inflammatory activity against Escherichia coli ATCC 25922-induced peritonitis ICR mouse model assessed as decrease in TNF-alpha level in serum spleen at 5 mg/kg, ip measured after 12 hrs; assay type: functional, organism-based
Mus musculus [45] = test: Anti-inflammatory activity against Escherichia coli ATCC 25922-induced peritonitis ICR mouse model assessed as decrease in IL-6 level in serum spleen at 5 mg/kg, ip measured after 12 hrs; assay type: functional, organism-based
Mus musculus [46] = test: Anti-inflammatory activity against Escherichia coli ATCC 25922-induced peritonitis ICR mouse model assessed as decrease in IL-1 beta level in serum spleen at 5 mg/kg, ip measured after 12 hrs; assay type: functional, organism-based
Escherichia coli [47] = test: Resistance fold, ratio of MIC for Escherichia coli ATCC 25922 measured after 7 day passage period to MIC for Escherichia coli ATCC 25922; assay type: functional

CCCCCCCCCC(=O)NCCCC[C@H](NC(=O)[C@@H](N)CSSC[C@H](N)C(=O)N[C@@H](CCCCNC(=O)CCCCCCCCC)C(=O)NCC(=O)NCC(=O)NCC(=O)N[C@H](CCCNC(=N)N)C(=O)N[C@@H](CCCNC(=N)N)C(=O)N[C@@H](CCCNC(=N)N)C(=O)N1CCC[C@H]1C(=O)O)C(=O)NCC(=O)NCC(=O)NCC(=O)N[C@H](CCCNC(=N)N)C(=O)N[C@@H](CCCNC(=N)N)C(=O)N[C@@H](CCCNC(=N)N)C(=O)N1CCC[C@H]1C(=O)O
Activity (Escherichia coli [1]): Active; Negligible Alteration In Mic Values Found
MIC (Salmonella typhimurium [2]): 8 µM (≈ 18.2 µg/mL)
HC10 [3]: 256 µM
Activity (Escherichia coli [4]): Active
MIC (Pseudomonas aeruginosa [5]): 8 µM (≈ 18.2 µg/mL)
IC10 (RAW264.7): 256 µM
Activity (Escherichia coli [6]): Active
Activity (Cell membrane [7]): Time-dependent-effect
Activity (Escherichia coli [8]): Active; Negligible Alteration In Mic Values Found
Activity (Escherichia coli [9]): Active
Activity (Escherichia coli [10]): Active
MIC (Staphylococcus aureus [11]): 8 µM (≈ 18.2 µg/mL)
inhibition (Escherichia coli [12]): Active
MIC (Escherichia coli [13]): 4 µM (≈ 9.12 µg/mL)
Activity (Escherichia coli [14]): Active
Activity (Cell membrane [15]): Active
MIC (Salmonella typhimurium [16]): 4 µM (≈ 9.12 µg/mL)
Activity (Escherichia coli [17]): inactive
IC10 [18]: 256 µM
Activity (Escherichia coli [19]): Active
MIC (Acinetobacter baumannii [20]): 16 µM (≈ 36.5 µg/mL)
Activity (Lipopolysaccharide (LPS)): Dose-dependent-effect
Activity (Cell membrane [21]): Dose-dependent-effect
Activity (Escherichia coli [22]): Active
Activity (Cell membrane [23]): Dose-dependent-effect
Activity (Escherichia coli [24]): ~40%
Activity (Escherichia coli [25]): Active
Activity (Escherichia coli [26]): Active
Activity (Escherichia coli [27]): Active
Activity (Escherichia coli [28]): Active
MIC (Escherichia coli [29]): 4 µM (≈ 9.12 µg/mL)
MIC (Pseudomonas aeruginosa [30]): 4 µM (≈ 9.12 µg/mL)
MIC (Staphylococcus aureus [31]): 8 µM (≈ 18.2 µg/mL)
Activity (Escherichia coli [32]): Active
MIC (Staphylococcus aureus [33]): 8 µM (≈ 18.2 µg/mL)
MIC (Staphylococcus aureus [34]): 8 µM (≈ 18.2 µg/mL)
IC10 (HEK-293T): 256 µM
Activity (Escherichia coli [35]): Active
MIC (Acinetobacter baumannii [36]): 4 µM (≈ 9.12 µg/mL)
MIC [37]: 8 µM (≈ 18.2 µg/mL)
MIC (Enterococcus faecalis): 8 µM (≈ 18.2 µg/mL)
Activity (Escherichia coli [38]): Active
fold change (FC) (Escherichia coli [39]): <=2
MIC (Escherichia coli [40]): 8 µM (≈ 18.2 µg/mL)
Activity (Escherichia coli [41]): Active
Activity (Escherichia coli [42]): Active
Activity (Escherichia coli [43]): Active; Negligible Alteration In Mic Values Found

CNC(C)[C@@H]1CC[C@@H](N)[C@@H](O[C@H]2[C@H](O)[C@@H](O[C@H]3OC[C@](C)(O)[C@H](NC)[C@H]3O)[C@H](N)C[C@@H]2N)O1.CN[C@@H]1[C@@H](O)[C@@H](O[C@@H]2[C@@H](O)[C@H](O[C@H]3O[C@H](C(C)N)CC[C@H]3N)[C@@H](N)C[C@H]2N)OC[C@]1(C)O.CN[C@@H]1[C@@H](O)[C@@H](O[C@@H]2[C@@H](O)[C@H](O[C@H]3O[C@H](CN)CC[C@H]3N)[C@@H](N)C[C@H]2N)OC[C@]1(C)O (stereo not given in full)
Activity (Mus musculus [44]): Active
MIC (Staphylococcus aureus [11]): > 64 µM
MIC (Acinetobacter baumannii [20]): > 64 µM
Activity (Mus musculus [45]): Active
Activity (Mus musculus [46]): Active
MIC (Pseudomonas aeruginosa [30]): 0.25 µM
MIC (Acinetobacter baumannii [36]): 0.25 µM

CN(C)[C@@H]1C(O)=C(C(N)=O)C(=O)[C@@]2(O)C(O)=C3C(=O)c4c(O)cccc4[C@@](C)(O)[C@H]3C[C@@H]12 [TETRACYCLINE]
fold change (FC) (Escherichia coli [47]): 8

— ChEMBL document CHEMBL6087476, “Positive Charge-Concentrated Dimeric Lipopeptides with Enhanced Protease Resistance: A Potential Solution for Systemic Bacterial Infections” (J Med Chem, 2025)
